Residues, ends and D or L forms follow the SMILES beside them.
Experiment: Inhibition of M-CSF/sRANKL-induced mouse BMDM differentiation into osteoclast after 72 hrs by TRAP staining-based microscopic analysis

- IC50: 780 nM
SMILES: C#CCCC/C=C(\C)C(=O)N(C)[C@H](C(=O)N(C)[C@H](C(=O)N(C)[C@H](C(=O)N(C)[C@H](C(=O)N1CCC[C@H]1C(=O)N1CCC[C@H]1C(=O)CC)C(C)C)C(C)C)[C@@H](C)CC)[C@@H](C)CC (HELM PEPTIDE1{[C#CCCC/C=C(\C)C(=O)[*:2]].[meI].[meI].[meV].[meV].P.[CCC(=O)[C@@H]1CCCN1[*:1]]}$$$$V2.0)

From BindingDB's records for doi:10.1016/j.bmcl.2015.09.044 (Keio University, 2015)
